Data reported in US8637269B2, “Method for the detection of melamine” (Bioo Scientific Corporation, priority 2009, dated 2014).

Molecular target: recombinant MDA enzyme (melamine deaminase, Tri A) (Paracidovorax citrulli, UniProt Q9EYU0)
Test: Enzymatic detection of melamine in microtiter plates (MDA-mediated conversion to ammonia, indophenol colour)
Assay type: biochemical, Pseudomonas sp. strain NRRL B-12227
Details: melamine (1000 ppm stock) and MDA enzyme diluted in 0.1 M Na-MOPS pH 7, overnight (about 12 hours), room temperature; salicylate/nitroprusside and NaOH/hypochlorite reagents; FIG. 2
Source text: The TriA gene encoding the melamine deaminase enzyme was inserted into the multiple cloning site region of the pET 24b bacterial expression plasmid. This subcloning strategy places the gene under the transcriptional regulation of the T7 RNA polymerase and fuses a His6 peptide tag onto the C-terminus of the protein to facilitate purification. We expressed the protein (MW about 50 kDa) in E. coli strain BL21 (DE3) and obtained significant amounts of soluble protein in the induced bacterial cultures. After disruption the lysed cell extract was passed over a Talon Cobalt column to bind the His6-tagged protein. After washing the column the bound protein was eluted from the column and dialyzed to remove imidazole.
Purified, desalted recombinant MDA enzyme (about 2 mg/ml in 0.1 M Na-MOPS buffer pH 7) and melamine (1000 ppm) were diluted into 0.1 M Na-MOPS buffer (pH 7) and incubated overnight (about 12 hours) at room temperature. Reaction aliquots were removed and tested for the production of ammonia by mixing the samples with salicylate/nitroprusside and NaOH/hypochlorite reagents in 96 well microtiter plates.

Chain of recombinant MDA enzyme (melamine deaminase, Tri A) (Q9EYU0 whole entry): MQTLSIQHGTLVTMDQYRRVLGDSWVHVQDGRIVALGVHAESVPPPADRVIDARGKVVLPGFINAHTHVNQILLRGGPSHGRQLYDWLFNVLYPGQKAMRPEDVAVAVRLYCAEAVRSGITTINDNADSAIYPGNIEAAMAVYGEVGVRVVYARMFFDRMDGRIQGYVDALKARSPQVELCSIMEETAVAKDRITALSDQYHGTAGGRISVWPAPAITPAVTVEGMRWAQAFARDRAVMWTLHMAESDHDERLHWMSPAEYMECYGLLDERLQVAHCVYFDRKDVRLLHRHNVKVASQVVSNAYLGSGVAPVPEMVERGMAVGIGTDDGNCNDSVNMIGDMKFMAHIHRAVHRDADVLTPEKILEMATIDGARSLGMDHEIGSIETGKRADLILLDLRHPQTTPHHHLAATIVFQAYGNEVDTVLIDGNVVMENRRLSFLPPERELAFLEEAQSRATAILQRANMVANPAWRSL

In the case of Nc1nc(N)nc(N)n1 [melamine], the “color change indicating MDA-mediated conversion of melamine to ammonia” value is reported as “strong color change”.
